In assay [1] the target is Serine/threonine-protein kinase MARK1 (Homo sapiens) (UniProt Q9P0L2). Description: Inhibition of human recombinant MARK1 at 40 nM related to control ULK1.
In assay [2] the target is Death-associated protein kinase 2 (Homo sapiens) (UniProt Q9UIK4). Description: Inhibition of human recombinant DAPK2 at 40 nM related to control ULK1.
Assay [3] addresses Serine/threonine-protein kinase PAK 4 (Homo sapiens) (UniProt O96013). Description: Inhibition of human recombinant PAK4 at 500 nM in presence of ATP by radiometric assay relative to control.
The target of assay [4] is Protein kinase C beta type (Homo sapiens) (UniProt P05771). Description: Inhibition of human recombinant PKCb at 500 nM in presence of ATP by radiometric assay relative to control.
Assay [5] has as its target Ribosomal protein S6 kinase alpha-3 (Homo sapiens) (UniProt P51812). Description: Inhibition of human recombinant RSK2 at 500 nM related to control ULK1.
Assay [6] addresses Transient receptor potential cation channel subfamily M member 7 (Homo sapiens) (UniProt Q96QT4). In words: Inhibition of human recombinant ChaK1 at 500 nM related to control ULK1.
Assay [7] deals with Insulin receptor-related protein (Homo sapiens) (UniProt P14616). Description: Inhibition of human recombinant IRR at 500 nM in presence of ATP by radiometric assay relative to control.
The target in assay [8] is Calcium/calmodulin-dependent protein kinase kinase 1 (Homo sapiens) (UniProt Q8N5S9). In words: Inhibition of human recombinant CaMKK1 at 500 nM in presence of ATP by radiometric assay relative to control.
Assay [9] deals with Calcium/calmodulin-dependent protein kinase type II subunit delta (Homo sapiens) (UniProt Q13557). In words: Inhibition of human recombinant CaMK2d at 500 nM related to control ULK1.
Assay [10] deals with T1, cGMP-dependent protein kinase 1 (Homo sapiens) (UniProt Q13976).
T1 sequence (whole entry): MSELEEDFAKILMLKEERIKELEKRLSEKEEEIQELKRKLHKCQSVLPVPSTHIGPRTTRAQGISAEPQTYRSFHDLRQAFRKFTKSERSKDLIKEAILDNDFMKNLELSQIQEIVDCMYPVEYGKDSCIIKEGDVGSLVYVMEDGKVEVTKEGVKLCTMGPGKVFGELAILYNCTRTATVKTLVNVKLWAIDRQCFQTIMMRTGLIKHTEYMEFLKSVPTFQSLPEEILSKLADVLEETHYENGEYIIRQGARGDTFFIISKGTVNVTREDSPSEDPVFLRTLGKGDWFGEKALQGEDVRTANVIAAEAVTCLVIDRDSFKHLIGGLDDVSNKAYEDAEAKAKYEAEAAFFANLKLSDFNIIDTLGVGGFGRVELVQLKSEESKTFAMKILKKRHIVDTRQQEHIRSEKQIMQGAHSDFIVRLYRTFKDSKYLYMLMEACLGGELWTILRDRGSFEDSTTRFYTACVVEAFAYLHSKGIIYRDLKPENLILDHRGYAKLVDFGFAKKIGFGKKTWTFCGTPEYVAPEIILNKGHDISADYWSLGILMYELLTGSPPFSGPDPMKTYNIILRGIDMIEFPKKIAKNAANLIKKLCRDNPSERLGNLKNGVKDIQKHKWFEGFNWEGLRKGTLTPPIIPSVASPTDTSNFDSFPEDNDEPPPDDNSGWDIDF
In words: Inhibition of human recombinant PKG1 at 15 nM related to control ULK1.

Assay [11] concerns the target Homeodomain-interacting protein kinase 1 (Homo sapiens) (UniProt Q86Z02). In words: Inhibition of human recombinant HIPK1 at 15 nM in presence of ATP by radiometric assay relative to control.
Assay [12] addresses Vascular endothelial growth factor receptor 2 (Homo sapiens) (UniProt P35968). In words: Inhibition of human recombinant KDR at 15 nM in presence of ATP by radiometric assay relative to control.
In assay [13] the target is T2, MAP kinase-activated protein kinase 5 (Homo sapiens) (UniProt Q8IW41).
T2 sequence (whole entry): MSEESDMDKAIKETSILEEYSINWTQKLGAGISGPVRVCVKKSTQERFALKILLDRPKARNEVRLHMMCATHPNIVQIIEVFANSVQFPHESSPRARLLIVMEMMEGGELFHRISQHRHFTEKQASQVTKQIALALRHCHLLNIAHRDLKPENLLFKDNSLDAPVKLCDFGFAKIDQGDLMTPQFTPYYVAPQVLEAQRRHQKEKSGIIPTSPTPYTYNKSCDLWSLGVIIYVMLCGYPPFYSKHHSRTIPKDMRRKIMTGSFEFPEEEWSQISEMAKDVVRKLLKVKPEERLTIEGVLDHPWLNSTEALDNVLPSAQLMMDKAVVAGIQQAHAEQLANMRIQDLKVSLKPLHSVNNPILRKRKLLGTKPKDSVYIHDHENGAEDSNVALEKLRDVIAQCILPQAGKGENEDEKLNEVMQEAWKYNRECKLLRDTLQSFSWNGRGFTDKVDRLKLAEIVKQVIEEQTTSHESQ
Description: Inhibition of human recombinant MAPKAPK5 at 15 nM related to control ULK1.

The target in assay [14] is MAP/microtubule affinity-regulating kinase 3 (Homo sapiens) (UniProt P27448). Description: Inhibition of human recombinant MARK3 at 15 nM related to control ULK1.
Assay [15] addresses T3, Dual specificity tyrosine-phosphorylation-regulated kinase 2 (Homo sapiens) (UniProt Q92630).
T3 sequence (whole entry): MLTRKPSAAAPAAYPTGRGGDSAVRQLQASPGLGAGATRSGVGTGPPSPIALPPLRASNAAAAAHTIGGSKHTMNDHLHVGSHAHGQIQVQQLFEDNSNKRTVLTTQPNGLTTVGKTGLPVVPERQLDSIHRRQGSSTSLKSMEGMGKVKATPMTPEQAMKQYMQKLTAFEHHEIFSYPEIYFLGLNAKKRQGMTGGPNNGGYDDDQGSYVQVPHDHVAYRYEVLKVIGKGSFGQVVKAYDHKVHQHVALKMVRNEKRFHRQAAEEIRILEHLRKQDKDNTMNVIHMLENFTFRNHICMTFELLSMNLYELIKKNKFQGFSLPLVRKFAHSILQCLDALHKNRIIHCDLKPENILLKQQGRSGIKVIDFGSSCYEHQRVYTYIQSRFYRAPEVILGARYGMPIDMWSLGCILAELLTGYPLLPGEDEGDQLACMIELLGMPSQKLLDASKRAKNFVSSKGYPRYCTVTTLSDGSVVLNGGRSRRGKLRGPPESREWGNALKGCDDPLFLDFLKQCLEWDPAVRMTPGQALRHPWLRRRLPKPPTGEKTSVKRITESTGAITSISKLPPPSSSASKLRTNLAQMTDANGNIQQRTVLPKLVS
In words: Inhibition of human recombinant DYRK2 at 15 nM related to control ULK1.

For assay [16], the target named is Myosin light chain kinase 2, skeletal/cardiac muscle (Homo sapiens) (UniProt Q9H1R3). Description: Inhibition of human recombinant skMLCK at 15 nM in presence of ATP by radiometric assay relative to control.
Assay [17] has as its target Interferon-induced, double-stranded RNA-activated protein kinase (Homo sapiens) (UniProt P19525). In words: Inhibition of human recombinant PKR at 15 nM in presence of ATP by radiometric assay relative to control.

Our source for the fold change (FC) and inhibition values is ChEMBL document CHEMBL5653631, “A Potent and Selective ULK1 Inhibitor Suppresses Autophagy and Sensitizes Cancer Cells to Nutrient Stress” (iScience, 2018).

Death-associated protein kinase 2 (Homo sapiens), sequence (Q9UIK4 whole entry, looked up): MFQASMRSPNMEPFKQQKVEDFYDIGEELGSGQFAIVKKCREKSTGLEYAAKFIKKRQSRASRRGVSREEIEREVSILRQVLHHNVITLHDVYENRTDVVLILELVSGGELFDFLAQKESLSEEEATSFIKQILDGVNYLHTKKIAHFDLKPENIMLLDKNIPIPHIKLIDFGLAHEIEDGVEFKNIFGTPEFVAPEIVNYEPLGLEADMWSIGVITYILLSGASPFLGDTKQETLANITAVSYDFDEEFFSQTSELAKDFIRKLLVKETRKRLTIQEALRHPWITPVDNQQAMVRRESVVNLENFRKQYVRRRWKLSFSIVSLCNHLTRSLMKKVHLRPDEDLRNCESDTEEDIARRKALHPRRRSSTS
Serine/threonine-protein kinase MARK1 (Homo sapiens), sequence (Q9P0L2 whole entry, looked up): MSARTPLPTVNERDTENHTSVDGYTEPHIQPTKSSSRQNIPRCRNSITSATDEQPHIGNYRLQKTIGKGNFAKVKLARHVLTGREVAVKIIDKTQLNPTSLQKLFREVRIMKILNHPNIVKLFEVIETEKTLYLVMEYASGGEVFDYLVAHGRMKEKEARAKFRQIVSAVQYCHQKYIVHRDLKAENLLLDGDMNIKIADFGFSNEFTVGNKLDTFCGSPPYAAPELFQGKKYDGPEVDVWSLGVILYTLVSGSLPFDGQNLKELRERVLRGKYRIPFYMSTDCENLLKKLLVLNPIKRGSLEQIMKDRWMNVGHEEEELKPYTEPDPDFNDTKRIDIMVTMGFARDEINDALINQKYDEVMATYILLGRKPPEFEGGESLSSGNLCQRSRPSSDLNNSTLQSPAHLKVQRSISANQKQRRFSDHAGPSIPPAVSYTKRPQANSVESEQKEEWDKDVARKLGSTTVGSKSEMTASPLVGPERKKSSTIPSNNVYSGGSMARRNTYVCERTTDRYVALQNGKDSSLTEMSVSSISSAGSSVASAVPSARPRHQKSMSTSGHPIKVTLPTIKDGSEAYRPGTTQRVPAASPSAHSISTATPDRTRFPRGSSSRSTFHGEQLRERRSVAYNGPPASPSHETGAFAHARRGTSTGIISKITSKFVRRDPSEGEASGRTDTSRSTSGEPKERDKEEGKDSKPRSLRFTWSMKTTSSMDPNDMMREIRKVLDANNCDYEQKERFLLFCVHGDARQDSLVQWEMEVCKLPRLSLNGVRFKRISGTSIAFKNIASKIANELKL
Transient receptor potential cation channel subfamily M member 7 (Homo sapiens), sequence (Q96QT4 whole entry): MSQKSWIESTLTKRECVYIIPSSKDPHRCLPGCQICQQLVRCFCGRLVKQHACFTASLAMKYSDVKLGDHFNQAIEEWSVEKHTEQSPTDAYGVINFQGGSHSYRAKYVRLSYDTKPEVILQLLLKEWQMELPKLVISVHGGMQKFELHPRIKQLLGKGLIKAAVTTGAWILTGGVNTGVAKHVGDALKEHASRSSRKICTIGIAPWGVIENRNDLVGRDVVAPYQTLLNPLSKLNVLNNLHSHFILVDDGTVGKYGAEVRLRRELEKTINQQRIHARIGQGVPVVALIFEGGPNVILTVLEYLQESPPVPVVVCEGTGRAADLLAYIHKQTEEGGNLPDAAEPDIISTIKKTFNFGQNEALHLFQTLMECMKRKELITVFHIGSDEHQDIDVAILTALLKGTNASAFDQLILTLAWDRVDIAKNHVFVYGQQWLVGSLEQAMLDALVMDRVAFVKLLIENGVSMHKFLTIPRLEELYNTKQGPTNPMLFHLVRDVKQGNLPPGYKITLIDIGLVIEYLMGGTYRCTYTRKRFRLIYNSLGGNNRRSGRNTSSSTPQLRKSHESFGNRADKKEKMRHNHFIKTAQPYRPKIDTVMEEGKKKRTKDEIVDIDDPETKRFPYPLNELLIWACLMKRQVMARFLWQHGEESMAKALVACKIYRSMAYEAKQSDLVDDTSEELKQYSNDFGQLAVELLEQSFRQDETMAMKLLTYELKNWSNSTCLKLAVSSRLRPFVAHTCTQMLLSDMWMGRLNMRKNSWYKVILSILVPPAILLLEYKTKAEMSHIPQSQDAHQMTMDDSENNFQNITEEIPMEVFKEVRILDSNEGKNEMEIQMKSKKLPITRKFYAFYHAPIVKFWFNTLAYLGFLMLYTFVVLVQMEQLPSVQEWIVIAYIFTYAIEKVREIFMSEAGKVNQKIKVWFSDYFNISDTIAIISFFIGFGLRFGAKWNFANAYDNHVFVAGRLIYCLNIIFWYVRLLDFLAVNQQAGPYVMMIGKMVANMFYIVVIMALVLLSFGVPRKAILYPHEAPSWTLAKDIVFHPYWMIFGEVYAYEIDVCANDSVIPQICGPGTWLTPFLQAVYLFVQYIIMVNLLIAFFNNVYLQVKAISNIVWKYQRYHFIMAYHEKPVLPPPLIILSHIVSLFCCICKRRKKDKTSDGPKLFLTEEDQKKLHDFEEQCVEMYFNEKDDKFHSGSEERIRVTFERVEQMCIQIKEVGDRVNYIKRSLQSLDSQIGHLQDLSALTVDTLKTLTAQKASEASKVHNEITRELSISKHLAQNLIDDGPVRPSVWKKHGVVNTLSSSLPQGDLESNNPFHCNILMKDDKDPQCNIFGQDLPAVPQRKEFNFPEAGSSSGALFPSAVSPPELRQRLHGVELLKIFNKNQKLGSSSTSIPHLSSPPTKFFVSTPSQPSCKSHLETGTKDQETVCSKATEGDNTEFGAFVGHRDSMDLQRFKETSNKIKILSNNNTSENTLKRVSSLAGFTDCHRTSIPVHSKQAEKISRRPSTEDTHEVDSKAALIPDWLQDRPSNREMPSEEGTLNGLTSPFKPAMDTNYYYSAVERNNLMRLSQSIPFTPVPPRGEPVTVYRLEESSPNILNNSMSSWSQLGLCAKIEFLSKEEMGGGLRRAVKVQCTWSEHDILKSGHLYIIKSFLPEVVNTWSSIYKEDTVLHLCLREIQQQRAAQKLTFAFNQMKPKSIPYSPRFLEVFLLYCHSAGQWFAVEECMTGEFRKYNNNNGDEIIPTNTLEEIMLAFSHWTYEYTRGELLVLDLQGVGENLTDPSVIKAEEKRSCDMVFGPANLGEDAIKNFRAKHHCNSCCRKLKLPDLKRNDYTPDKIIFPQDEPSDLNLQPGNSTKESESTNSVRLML
Protein kinase C beta type (Homo sapiens), sequence (P05771 2-671 limits assumed): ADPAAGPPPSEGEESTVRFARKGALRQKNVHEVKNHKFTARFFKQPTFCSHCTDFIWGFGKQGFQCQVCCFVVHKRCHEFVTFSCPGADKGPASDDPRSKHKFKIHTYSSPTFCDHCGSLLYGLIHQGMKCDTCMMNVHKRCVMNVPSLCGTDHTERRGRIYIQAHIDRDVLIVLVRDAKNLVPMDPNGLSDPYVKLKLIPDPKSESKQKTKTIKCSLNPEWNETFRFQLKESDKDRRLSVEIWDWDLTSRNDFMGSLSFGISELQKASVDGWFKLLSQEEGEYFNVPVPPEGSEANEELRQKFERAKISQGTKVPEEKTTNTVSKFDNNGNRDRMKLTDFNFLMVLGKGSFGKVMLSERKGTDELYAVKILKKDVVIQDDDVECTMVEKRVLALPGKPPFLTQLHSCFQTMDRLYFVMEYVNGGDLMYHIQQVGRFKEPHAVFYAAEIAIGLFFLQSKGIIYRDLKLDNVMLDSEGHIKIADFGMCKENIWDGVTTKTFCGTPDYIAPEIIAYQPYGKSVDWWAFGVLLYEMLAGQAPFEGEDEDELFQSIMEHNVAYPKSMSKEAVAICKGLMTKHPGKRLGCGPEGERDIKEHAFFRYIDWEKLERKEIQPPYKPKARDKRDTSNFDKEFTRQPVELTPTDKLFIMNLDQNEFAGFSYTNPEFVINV
Myosin light chain kinase 2, skeletal/cardiac muscle (Homo sapiens), sequence (Q9H1R3 whole entry): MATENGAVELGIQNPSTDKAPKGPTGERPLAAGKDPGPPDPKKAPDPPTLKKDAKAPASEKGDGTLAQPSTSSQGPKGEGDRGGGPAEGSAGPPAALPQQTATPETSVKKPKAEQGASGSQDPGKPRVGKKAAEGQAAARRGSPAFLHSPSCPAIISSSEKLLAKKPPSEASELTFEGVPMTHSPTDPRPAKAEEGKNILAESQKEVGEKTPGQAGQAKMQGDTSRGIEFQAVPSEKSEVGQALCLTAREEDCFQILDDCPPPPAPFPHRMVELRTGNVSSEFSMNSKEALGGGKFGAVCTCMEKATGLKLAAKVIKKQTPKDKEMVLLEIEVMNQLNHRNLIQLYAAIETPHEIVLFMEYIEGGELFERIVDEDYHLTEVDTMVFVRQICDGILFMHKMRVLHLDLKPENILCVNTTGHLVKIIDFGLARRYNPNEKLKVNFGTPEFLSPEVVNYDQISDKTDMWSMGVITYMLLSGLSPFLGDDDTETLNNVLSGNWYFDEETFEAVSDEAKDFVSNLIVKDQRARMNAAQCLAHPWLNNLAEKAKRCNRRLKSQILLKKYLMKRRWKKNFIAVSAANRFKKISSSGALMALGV
Ribosomal protein S6 kinase alpha-3 (Homo sapiens), sequence (P51812 whole entry): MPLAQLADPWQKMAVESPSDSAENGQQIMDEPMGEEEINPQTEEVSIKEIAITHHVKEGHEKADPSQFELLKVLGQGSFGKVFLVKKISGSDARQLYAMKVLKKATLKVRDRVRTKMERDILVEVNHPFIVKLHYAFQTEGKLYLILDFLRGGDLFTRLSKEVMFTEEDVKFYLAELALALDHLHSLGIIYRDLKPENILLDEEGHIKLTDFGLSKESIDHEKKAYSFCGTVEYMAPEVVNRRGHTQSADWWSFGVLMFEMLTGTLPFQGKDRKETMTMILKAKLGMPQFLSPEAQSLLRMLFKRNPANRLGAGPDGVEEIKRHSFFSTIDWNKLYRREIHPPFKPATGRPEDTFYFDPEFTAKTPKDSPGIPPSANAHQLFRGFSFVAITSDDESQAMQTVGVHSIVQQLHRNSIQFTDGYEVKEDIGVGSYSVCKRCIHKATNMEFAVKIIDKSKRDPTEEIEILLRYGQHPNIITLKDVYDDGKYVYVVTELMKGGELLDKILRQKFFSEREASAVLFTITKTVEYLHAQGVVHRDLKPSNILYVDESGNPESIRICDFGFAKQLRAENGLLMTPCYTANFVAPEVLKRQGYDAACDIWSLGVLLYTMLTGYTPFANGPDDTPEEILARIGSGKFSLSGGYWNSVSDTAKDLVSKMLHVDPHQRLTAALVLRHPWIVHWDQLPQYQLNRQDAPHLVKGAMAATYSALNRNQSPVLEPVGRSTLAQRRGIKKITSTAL

`O=C(N[C@@H](C1CC1)C(F)(F)F)c1cc(-c2cnn3cc(-c4ccc(F)cc4)cnc23)cs1`: the figures for the fold change (FC) in [1] and in assay [2] were 0.4 and 0, respectively.

For orientation: inhibition means the share of the control response that was lost under treatment. As for `CNC(=O)c1ccccc1Oc1nc(Nc2cc(OC)c(OC)c(OC)c2)ncc1Br`, the inhibition in [3] came out at 41%; in assay [4] it was 7%; in assay [7], 9%; in assay [8], 8%. The figures for the fold change (FC) in [5], in assay [6] and in assay [9] were 0.5, 0 and 0.12, respectively.

Regarding `CC(C)[C@H](NC(=O)c1cc(-c2cnn3cc(-c4ccc(OCCN5CCCCC5)cc4)cnc23)cs1)C(F)(F)F`, the fold change (FC) came to 0 in assay [10], 0 in [13], 0.72 in assay [14] and 0.09 in [15]. Also, the inhibition in assay [11] worked out at 0%; in assay [12] it was 20%; in [16], 11%; in [17] it was 2%.
